Measured values reported in patent US10570141B2, “Substituted pyrrolopyrimidine CDK inhibitor, pharmaceutical composition containing same and use thereof” (CHIA TAI TIANQING PHARMACEUTICAL GROUP CO., LTD., priority 2016, dated 2020).
Counter-ions that a name gives are not always drawn. Like-named read-outs stand apart in the source and are kept apart here.

Columns and labels:
CDK4/CyclinD3 = CDK4/CyclinD3 (Homo sapiens (Human), UniProt P11802); assay: In vitro kinase activity inhibition assay of CDK4/CyclinD3 (LANCE method); assay type: biochemical; details: recombinant CDK4/CyclinD3 2 nM, ATP 200 μM, 1 h room temperature
Description: (§1) A method for in vitro kinase activity inhibition assay of CDK4/CyclinD3 and CDK6/CyclinD3 is established as follows:
(§2) LANCE method of PerkinElmer Inc. was used in the assay, and recombinant CDK4/CyclinD3 (Item No.: 04-105) and CDK6/CyclinD3 (Item No.: 04-107) kinases were purchased from Cama Biosciences, Inc. Substrate ULight-MBP (Item No.: TRF0109) and Eu-labeled anti-MBP antibody (Item No.: TRF0201) were purchased from PerkinElmer. HEPES PH7.5 (Item No.: #15630080), DTT (Item No.: # D1532), MgCl2 (Item No.: # AM9530G), EGTA (Item No.: # E1219), and EDTA (Item No.: # AM9260G) were purchased from Life Technology. Firstly, a 1× buffer solution A (50 mM HEPES, PH 7.5, 10 mM MgCl2, 1 mM EGTA, 0.01% Tween 20 and 2 mM DTT) was prepared. A compound to be tested was dissolved in DMSO to 1 mM, serially diluted with DMSO, and then diluted 25-fold with the buffer solution A (final concentration of DMSO: 1%). CDK4/CyclinD3 and CDK6/CyclinD3 were diluted respectively with the buffer solution A. Finally, the buffer solution A was used to prepare the substrate and ATP. 4 μl of CDK4/CyclinD3 (final concentration: 2 nM) or CDK6/CyclinD3 (final concentration: 4 nM), 2 μl of the diluted compound, and 4 μl of a mixture of the substrate (final concentration: 50 nM) and ATP (final concentration: 200 μM) were added to reaction wells, and the resulting mixture was kept at room temperature to react for 1 h. Then, an EDTA solution was added to terminate the reaction, and Eu-labeled anti-MBP antibody was added and the resulting mixture was incubated at room temperature for additional 1 h. EnVision was used to read fluorescent signals (excitation wavelength: […], emission wavelength: […]).

CDK6/CyclinD3 = CDK6/CyclinD3 (Homo sapiens (Human), UniProt Q00534); assay: In vitro kinase activity inhibition assay of CDK6/CyclinD3 (LANCE method); assay type: biochemical; details: recombinant CDK6/CyclinD3 4 nM, ATP 200 μM, 1 h room temperature
Description: as §1, §2

Colo-205 cells = assay: Inhibition of proliferation of colon cancer cell line Colo-205 (Cell-Titer Glo); assay type: cell-based, human; details: 72 hours incubation, cell viability, read-out: IC50(Colo205)
Description: (§3) Colo-205 (Crown Bioscience Inc.) and MCF7 (Beijing Jinzijing Biology Medicine Technology Co., Ltd.) cells were inoculated into a 96-well plate (Corning, Item No.: 3599) at a density of 1000 cells/well, and incubated overnight. A compound at different concentrations (10000 nM, 3000 nM, 1000 nM, 300 nM, 100 nM, 30 nM, 10 nM, 3 nM, 1 nM, 0.3 nM, 0 nM, final concentration of DMSO: 0.1%) was added on the next day, and the incubation was continued for additional 72 hours. The culture medium was sucked with a vacuum pump, 50 ul of Cell-Titer Glo reagent (Promega, Item No.: G7572) was added to each well, and shaken for 10 min. Chemiluminescent signals were collected by EnVision® Multilabel Reader (PerkinElmer Inc.) to detect the cell viability and calculate the half maximal inhibitory concentration of the compound for inhibiting cell proliferation.

MCF7 cells = assay: Inhibition of proliferation of breast cancer cell line MCF7 (Cell-Titer Glo); assay type: cell-based, human; details: 72 hours incubation, cell viability
Description: as §3

[1] = Pharmacokinetics evaluation in rats after intragastric administration; details: male, rat, plasma, po, 5 mg/kg
Description: (§4) 3 Healthy adult male rats were used for each tested compound. The tested compound was suspended in 20% sulfobutyl ether-β-cyclodextrin at a concentration of 1 mg/mL, and then was intragastrically administered at a single dose of 5 mg/kg (administered volume: 5 mL/kg). The animals to be intragastrically administered were fasted overnight prior to the experiment, i.e., fasted from 10 h prior to the administration to 4 h after the administration, and blood samples were collected in 0.25, 0.5, 1, 2, 4, 6, 8 and 24 h after the intragastric administration. About 0.3 mL of whole blood was collected from the orbital venous plexus, and put in a heparin anticoagulant tube. The sample was centrifuged at 4° C. at 4000 rpm for 5 min. The plasma was transferred to a centrifuge tube, and kept at −80° C. until analysis. Concentration of the tested compound in the plasma sample was analyzed using non-validated liquid chromatography-tandem mass spectrometry (LC-MS/MS). Plasma concentration-time data of individual animals were analyzed using WinNonlin (Professional Edition, Version 6.3; Pharsight Corporation) software. A non-compartment model was used for concentration analysis.

[2] = rat, in vivo, po, 5 mg/kg
Description: as §4

Sequence of CDK6/CyclinD3 (Q00534 whole entry): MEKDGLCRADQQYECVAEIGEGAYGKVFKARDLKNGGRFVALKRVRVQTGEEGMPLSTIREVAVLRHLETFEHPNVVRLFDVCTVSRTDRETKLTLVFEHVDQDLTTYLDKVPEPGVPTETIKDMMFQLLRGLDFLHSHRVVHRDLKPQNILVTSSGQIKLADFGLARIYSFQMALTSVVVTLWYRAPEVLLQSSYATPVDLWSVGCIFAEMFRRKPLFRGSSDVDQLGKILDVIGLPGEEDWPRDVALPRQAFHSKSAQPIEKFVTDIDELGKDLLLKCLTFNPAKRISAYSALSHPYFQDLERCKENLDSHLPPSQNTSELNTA
Sequence of CDK6/CyclinD3 (P30281 whole entry partner): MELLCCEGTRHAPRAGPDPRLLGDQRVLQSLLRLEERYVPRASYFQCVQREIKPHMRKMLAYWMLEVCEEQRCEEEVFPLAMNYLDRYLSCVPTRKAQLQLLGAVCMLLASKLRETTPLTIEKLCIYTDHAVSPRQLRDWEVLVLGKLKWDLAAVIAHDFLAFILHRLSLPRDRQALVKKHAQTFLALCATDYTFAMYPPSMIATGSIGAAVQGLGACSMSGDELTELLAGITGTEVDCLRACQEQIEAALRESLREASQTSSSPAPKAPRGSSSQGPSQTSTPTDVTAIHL
Sequence of CDK4/CyclinD3 (P11802 whole entry): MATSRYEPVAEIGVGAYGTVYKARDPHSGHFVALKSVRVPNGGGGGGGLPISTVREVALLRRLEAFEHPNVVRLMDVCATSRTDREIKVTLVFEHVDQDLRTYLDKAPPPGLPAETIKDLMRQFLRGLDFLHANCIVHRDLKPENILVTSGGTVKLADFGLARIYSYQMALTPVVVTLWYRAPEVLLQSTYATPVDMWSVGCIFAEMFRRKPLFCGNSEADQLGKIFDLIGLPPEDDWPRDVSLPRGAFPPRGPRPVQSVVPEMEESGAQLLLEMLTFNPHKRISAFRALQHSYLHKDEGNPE
Sequence of CDK4/CyclinD3 (P30281 whole entry partner): as the sequence (P30281 whole entry partner) above

SMILES | IC50 (CDK4/CyclinD3) | IC50 (CDK6/CyclinD3) | IC50 (Colo-205 cells; Homo sapiens) | IC50 (MCF7 cells; Homo sapiens) | AUC(0-inf) [1] | Cmax [1] | Tmax [1] | half-life [1] | also measured
CN(C)C(=O)c1cc2cnc(Nc3ccc(C4=CCNCC4)cn3)nc2n1C1CCCC1.Cl [Example 6, 7-cyclopentyl-6-N,N-dimethylcarbamoyl-N-(5-(1,2,3,6-4H-pyridin-4-yl)pyridin-2-yl)-7H-pyrrolo[2,3-d]pyrimidin-2-amine hydrochloride] | 2.37 nM | 30.6 nM | 1260 nM | 333 nM | 627 ng·h/mL | 74.3 ng/mL | 3.33 h | 3.76 h | –
CN(C)C1CCN(c2ccc(Nc3ncc4cc(S(C)(=O)=O)n(C5CCCC5)c4n3)nc2)CC1 [Example 3, 7-cyclopentyl-6-methylsulfonyl-N-(5-(4-(dimethylamino)piperidin-1-yl)pyridin-2-yl)-7H-pyrrolo[2,3-d]pyrimidin-2-amine hydrochloride] | 3.4 nM | 18.7 nM | – | – | – | – | – | – | –
CN(C)C(=O)c1cc2cnc(Nc3ccc(N4CCNCC4)cn3)nc2n1C1CCCC1.Cl [Comparative Example 1, 7-cyclopentyl-2-(5-(piperazin-1-yl-pyridin-2-ylamino)-7H-pyrrolo[2,3-d]pyrimidine-6-carboxylic acid dimethylamide (ribociclib) hydrochloride] | – | – | – | – | – | – | – | – | IC50 (Colo-205 cells): 2690 nM; IC50 (MCF7 cells): 326 nM
CS(=O)(=O)c1cc2cnc(Nc3ccc(C4CCNCC4)cn3)nc2n1C1CCCC1 [Example 5, 7-cyclopentyl-6-methylsulfonyl-N-(5-(piperidin-4-yl)pyridin-2-yl)-7H-pyrrolo[2,3-d]pyrimidin-2-amine hydrochloride] | 1.46 nM | 9.85 nM | 470 nM | – | – | – | – | – | –
CS(=O)(=O)c1cc2cnc(Nc3ccc(C4=CCNCC4)cn3)nc2n1C1CCCC1.Cl [Example 4, 7-cyclopentyl-6-methylsulfonyl-N-(5-(1,2,3,6-4H-pyridin-4-yl)pyridin-2-yl)-7H-pyrrolo[2,3-d]pyrimidin-2-amine hydrochloride] | 2.57 nM | 11.1 nM | 312 nM | 175 nM | 889 ng·h/mL | 90 ng/mL | 3 h | 3.28 h | –
CN(C)C(=O)c1cc2cnc(Nc3ccc(N4CCNCC4)cn3)nc2n1C1CCCC1.Cl [Comparative Example 1] | – | – | – | – | – | – | – | – | AUC(0-inf) [2]: 120 ng·h/mL; Cmax [2]: 15.8 ng/mL; T1/2 [2]: 4.25 h; Tmax [2]: 2.67 h
CS(=O)(=O)c1cc2cnc(Nc3ccc(N4CCNCC4)cn3)nc2n1C1CCCC1 [Example 1, 7-cyclopentyl-6-methylsulfonyl-N-(5-(piperazin-1-yl)pyridin-2-yl)-7H-pyrrolo[2,3-d]pyrimidin-2-amine hydrochloride] | 0.8 nM | 5.7 nM | 271 nM | 114 nM | 1960 ng·h/mL | 255 ng/mL | 1.33 h | 7.23 h | –
CCS(=O)(=O)c1cc2cnc(Nc3ccc(N4CCNCC4)cn3)nc2n1C1CCCC1 [Example 2, 7-cyclopentyl-6-ethylsulfonyl-N-(5-(piperazin-1-yl)pyridin-2-yl)-7H-pyrrolo[2,3-d]pyrimidin-2-amine hydrochloride] | 2.12 nM | 21 nM | – | – | – | – | – | – | –
